Data from US20120277298A1, “FLAVANONES-CONTAINING FOOD COMPOSITIONS” (NESTEC S.A., priority 2009, published 2012).

Assay: Particle size distribution of hesperidin by laser diffraction (Malvern Mastersizer 2000)
Assay type: physicochemical
Description: The particle size distribution is observed using a microscopy optic LEICA DMR (mode Differential Interference Contrast and polarisation). The particle size distribution is measured by laser diffraction using a Malvern Mastersizer 2000.

In the case of `COc1ccc([C@@H]2CC(=O)c3c(O)cc(O[C@@H]4O[C@H](CO[C@@H]5O[C@@H](C)[C@H](O)[C@@H](O)[C@H]5O)[C@@H](O)[C@H](O)[C@H]4O)cc3O2)cc1O` [Commercially available hesperidin, hesperidin], the “% of cumulative distribution of hesperidin particle size below 20 microns” value (0.1% hesperidin in water, Example 1) is reported as 40% and the “% of cumulative distribution < 20 microns of hesperidin in water” value (hesperidin in water, Example 4) is reported as “Average 40%”.
